≈ marks a conversion by molar mass, not a printed value.
Legend:
[1] = system: vancomycin-resistant enterococcal bacteremia; assay: Blood culture follow-up of compassionate use subject treated with oritavancin; type: in vivo, human
Description: (§1) In response to a compassionate use request, oritavancin was administered to a subject having bacteremia.
The demographics of the subject included the following: […]; […]; […]; weight—190 lb; height—70 inches. The subject's medical history included the following: CAD s/p CABG 8/08 (SVG to OM1, SVG to PDA); severe AS s/p bioprosthetic AVR 8/08; lumbar discectomy and fusion February 2011, hardware removed Jan. 11, 2013; PVD S/p bilateral CEA 2010; CKD s/p renal artery stenting December 2011, Baseline Cr approx 3.0 s; HTN; CHF; HLD; mild pulmonary fibrosis; BPH; GERD; arthritis.
The subject was diagnosed with: 1) vancomycin-resistant enterococcal bacteremia with intolerance of other antibiotics; and 2) possible spinal osteomyelitis.
(§2) Treatment as of Feb. 8, 2013: oritavancin (1200 mg IV, Q2D×3 times, then QW×5 times).
Last blood culture was Feb. 4, 2013 (negative). Attending physician will take blood sample for culture Feb. 11, 2013 and weekly thereafter.

MDR SA = assay: Microdilution MIC against MDR SA by specimen source; type: cell-based, S. aureus
Description: 456 clinical, single-patient, non-consecutive, MDR SA isolates from the known specimen sources collected in 2011-2012 were analyzed. MDR was defined as resistant to ≧3 of the following: erythromycin, clindamycin, gentamicin, levofloxacin, and trimethoprim/sulfamethoxazole. 382 were MRSA and 74 were MSSA. MICs were determined by microdilution testing in accordance with CLSI M7 and M100 guidelines. Although other comparator drugs were tested, this analysis focuses on the activities of ORI, VAN, DAP, and LZD.

E. faecalis = assay: Broth microdilution MIC, US isolates 2011-2012, blood vs non-blood; type: cell-based
Description: (§3) 527 E. faecalis, 176 E. faecium, and 790 BHS (335 S. pyogenes and 455 S. agalactiae) clinical, single patient, non-consecutive isolates were collected in 2011-2012 from 46 sites geographically distributed across the United States. The MICs were determined by broth microdilution testing performed in accordance with CLSI M7 and M100 guidelines. From the resulting database, this analysis focused on the activities of ORI, vancomycin (VAN), daptomycin (DAP), and linezolid (LZD) according to specimen source.

S. pyogenes = assay: as above; type: cell-based
Description: as §3

E. faecium = assay: as above; type: cell-based
Description: as §3

S. agalactiae = assay: as above; type: cell-based
Description: as §3

[2] = Oritavancin concentrations (PK samples) in compassionate use subject; type: in vivo, human
Description: as §1, §2
PK samples have been taken.
Attending physician kept the infusion time at 4 hours.
The concentrations are consistent with expectations from modeling (modeled oritavancin concentration-time profile is attached), with oritavancin attaining peaks of about 120-130 ug/mL and troughs of around 5-10 ug/mL for the loading phase and of around 5 ug/mL for the weekly dosing phase.

## CN[C@H](CC(C)C)C(=O)N[C@H]1C(=O)N[C@@H](CC(N)=O)C(=O)N[C@H]2C(=O)N[C@H]3C(=O)N[C@H](C(=O)N[C@H](C(=O)O)c4cc(O)cc(O)c4-c4cc3ccc4O)[C@H](O[C@H]3C[C@](C)(N)[C@@H](O)[C@H](C)O3)c3ccc(c(Cl)c3)Oc3cc2cc(c3O[C@@H]2O[C@H](CO)[C@@H](O)[C@H](O)[C@H]2O[C@H]2C[C@](C)(NCc3ccc(-c4ccc(Cl)cc4)cc3)[C@@H](O)[C@H](C)O2)Oc2ccc(cc2Cl)[C@H]1O [Oritavancin, N-(4-(4-chlorophenyl)benzyl)A82846B]
[1]; Feb. 11, 2013 sample, after two 1200 mg IV doses
  blood culture: negative
[1]; samples taken Feb. 19, 2013, culture duration is 5 days
  blood culture: so far negative
MDR SA; Blood, n = 108
  MIC50: 0.03 µg/mL (≈ 0.0167 µM)
  MIC90: 0.12 µg/mL (≈ 0.0669 µM)
  Mode (MIC): 0.03 µg/mL
MDR SA; Blood, n = 108, in µg/mL
  Range (MIC): 0.015-0.25
MDR SA; Respiratory, N = 157
  MIC50: 0.03 µg/mL (≈ 0.0167 µM)
  MIC90: 0.06 µg/mL (≈ 0.0335 µM)
  Mode (MIC): 0.03 µg/mL
MDR SA; Respiratory, N = 157, in µg/mL
  Range (MIC): 0.008-0.25
MDR SA; Skin/Wound, N = 191
  MIC50: 0.03 µg/mL (≈ 0.0167 µM)
  MIC90: 0.06 µg/mL (≈ 0.0335 µM)
  Mode (MIC): 0.03 µg/mL
  Range (MIC): ≦0.002-0.25
E. faecalis; Blood, N 116
  MIC90: 0.06 µg/mL (≈ 0.0335 µM)
E. faecalis; Non-Blood, N 411
  MIC90: 0.06 µg/mL (≈ 0.0335 µM)
S. pyogenes; Blood, N 53
  MIC90: 0.25 µg/mL (≈ 0.139 µM)
S. pyogenes; Non-Blood, N 282
  MIC90: 0.25 µg/mL (≈ 0.139 µM)
E. faecium; Blood, N 84
  MIC90: 0.12 µg/mL (≈ 0.0669 µM)
E. faecium; Non-Blood, N 92
  MIC90: 0.12 µg/mL (≈ 0.0669 µM)
S. agalactiae; Blood, N 100
  MIC90: 0.25 µg/mL (≈ 0.139 µM)
S. agalactiae; Non-Blood, N 355
  MIC90: 0.25 µg/mL (≈ 0.139 µM)
[2]; 1200 mg IV, Q2D x3 then QW x5
  peaks (oritavancin concentration): 120 to 130 µg/mL
[2]; Peak - First Dose, 1200 mg IV
  Oritavancin concentration: 114.793 µg/mL
[2]; Peak - Third Dose, 1200 mg IV
  Oritavancin concentration: 133.581 µg/mL
[2]; Trough - First Dose, 1200 mg IV
  Oritavancin concentration: 4.272 µg/mL
[2]; Trough - Second Dose, 1200 mg IV
  Oritavancin concentration: 7.614 µg/mL
[2]; loading phase
  troughs (oritavancin concentration): 5 to 10 µg/mL
[2]; trough, fifth dose, 1200 mg IV
  Oritavancin concentration: 4.584 µg/mL
[2]; trough, fourth dose, 1200 mg IV
  Oritavancin concentration: 4.256 µg/mL
[2]; trough, sixth dose, 1200 mg IV
  Oritavancin concentration: 4.489 µg/mL
[2]; trough, third dose, 1200 mg IV
  Oritavancin concentration: 3.775 µg/mL
[2]; weekly dosing phase
  accumulation: no evidence of substantial accumulation
  troughs (oritavancin concentration): around 5 ug/mL
